“And” between values parts separate entries of the source, which are not always exact repeats. Identical values can stand only once.
Tests used:
[1] = siRNA/mRNA encapsulation rate by Ribogreen reagent (section IV); format: physicochemical; settings: for % siRNA encapsulation: F7siRNA-loaded LNP, 50:10:38.5:1.5, N/P ratio 6; for % mRNA encapsulation: FlucmRNA-loaded LNP, 50:10:38.5:1.5
Protocol: The encapsulation rates of siRNA and mRNA of lipid nanoparticles were measured with Ribogreen reagent. A solution diluted with TE buffer solution was arranged so that lipid nanoparticle concentration as nucleic acid concentration to be 8 μg/mL, as a solution for measuring nanoparticle surface nucleic acid concentration. In addition, a solution for measuring total nucleic acid concentration was arranged so that lipid nanoparticle concentration as nucleic acid concentration to be 1.2 μg/mL, which is 1% (w/w) concentration of X-triton100, by adding X-triton100. For 100 μL of each solution, 100 μL of Ribogreen (registered trademark) reagent (Quant-iT™ RiboGreen™ RNA Reagent, manufactured by Thermofisher Scientific) was mixed well in the wells of 96-well microplate (black, made of polystyrene, flat bottom, manufactured by Corning), and the fluorescence intensity at an excitation wavelength of 485 nm and a measurement wavelength of 528 nm was measured with a microplate reader. Nucleic acid concentration was calculated by calibration curve created by measuring the fluorescence intensity of nucleic acid solution containing 1% X-triton100 (nucleic acid concentration: 0-2.5 μg/mL) as same as aforementioned. Nucleic acid encapsulation rate of each lipid nanoparticle was calculated by the following formula: Encapsulation rate %=(nucleic acid concentration in solution for measuring total nucleic acid concentration (μg/mL)−nucleic acid concentration in solution for measuring nanoparticle surface nucleic acid concentration (μg/mL))/nucleic acid concentration in solution for measuring total nucleic acid concentration (μg/mL)×100. <Results>
The encapsulation rate of mRNA of lipid nanoparticles was measured using Ribogreen (manufactured by life technologies).

liver = experiment: In vivo Fluc activity of FlucmRNA-loaded LNP by in vivo imaging, liver; settings: Balb/c mice, 6 hours; for Fluc Activity in liver: FlucmRNA-loaded LNP i.v. 0.1 mg mRNA/kg
Protocol: (§1) Then, each prepared FlucmRNA-loaded lipid nanoparticles were administered to Balb/c mice (Charles River Laboratories Japan, Inc., 7 weeks old, female) and in vivo gene expression activity was examined. Specifically, each FlucmRNA-loaded lipid nanoparticles were intravenously administered to Balb/c mice at 0.1 mg mRNA/kg, and Fluc activities in the liver and spleen at 6 hours later were measured. Fluc activity was measured by in vivo imaging system (Perkin Elmer, IVIS200) after administration of VivoGlo Luciferin, In Vivo Grade (Promega, P1041) dissolved with PBS to 15 mg/mL, via tail vein at a dose of 1.5 mg per mouse. The unit of Fluc activity is the emission intensity per unit area (Avg Radiance [p/s/cm2/sr]) at the maximum emission wavelength of about 560 nm. The results of measurement of the Fluc activity (Avg Radiance [p/s/cm2/sr]) in the liver and spleen of mice administered each FlucmRNA-loaded lipid nanoparticles are shown in Tables 5-7.

F7 = experiment: In vivo F7 knockdown, plasma F7 enzyme activity (BIOPHEN FVII), Balb/c mice; settings: for F7 enzyme activity (%): untreated mice as 100%
Protocol: Then, each prepared F7siRNA-loaded lipid nanoparticles were administered to Balb/c mice (Charles River Laboratories Japan, Inc., 5 weeks old, female) and in vivo F7 knockdown activity was examined. Specifically, BALB/c mice were intravenously administered F7siRNA-loaded lipid nanoparticles comprising the lipids described in Table 9 at 0.025 mg siRNA/kg and F7siRNA-loaded lipid nanoparticles comprising the lipids described in Tables 10 and 11 at 0.025 mg siRNA/kg, and the plasma F7 enzyme activity at 24 hours later was measured using BIOPHEN FVII (Biophen, A221304). Relative plasma F7 enzyme activity (%) of mice administered each F7siRNA-loaded lipid nanoparticles was calculated using plasma F7 enzyme activity of untreated mice as 100%. Furthermore, the ratio was calculated using the relative plasma F7 enzyme activity (%) of mice administered MC3-comprising F7siRNA-loaded lipid nanoparticles as 1. The results of measurement of CL4F6 derivative nanoparticles are shown in Tables 9 and 10, and results of measurement of CL15F6 derivative nanoparticles in Table 11.

[2] = Average particle size (ζ-Average) and PDI by dynamic light scattering (Zetasizer Nano ZSP); format: physicochemical
Protocol: The average particle size (ζ-Average) and PDI in PBS(−) of lipid nanoparticles were measured using “Zetasizer Nano ZSP”, an analyzer utilizing dynamic light scattering (manufactured by Malvern).
Measurement of average particle size and PDI of the lipid nanoparticles were carried out with the same method as the measurement of average particle size of mRNA-LNP.
The average particle size (ζ-Average) and PDI in PBS (−) of lipid nanoparticles were measured using “Zetasizer Nano ZSP”, an analyzer utilizing dynamic light scattering (manufactured by Malvern).

spleen = experiment: In vivo Fluc activity of FlucmRNA-loaded LNP by in vivo imaging, spleen; settings: Balb/c mice, 6 hours; for Fluc Activity in spleen: FlucmRNA-loaded LNP i.v. 0.1 mg mRNA/kg; for Fluc activity in the spleen, compared with CL4F6: 0.1 mg mRNA/kg, versus LNP comprising CL4F6 (Tables 5 and 6)
Protocol: as §1

[3] = Storage stability of FlucmRNA-loaded LNP at −80, 5, 25 and 40° C.; format: physicochemical; settings: for period for which quality remained good, −80° C.: maximum storage period 1 week; for period for which quality remained good, 5° C. / period for which quality remained good, 25° C. / period for which quality remained good, 40° C. (weeks) / period for which quality remained good, 40° C. (days): maximum storage period 5 weeks
Protocol: Lipid nanoparticles were allowed to stand at each temperature of −80° C., 5° C., 25° C., and 40° C., and after keeping for each period of time, average particle size, PDI, and nucleic acid encapsulation rate were measured. Lipid nanoparticles which satisfy following all three conditions were defined that the quality was remained well: the average particle size is maintained within +/−20 nm based on the date of LNP preparation; PDI remains high uniformity with a value of 0.2 or less; and the nucleic acid encapsulation rate is also maintained at 80% or more. As a result of measuring average particle size, PDI, and nucleic acid encapsulation rate after each FlucmRNA-loaded lipid nanoparticle was allowed to stand at −80° C., 5° C., 25° C., and 40° C. respectively and kept for each period of time, periods of time defined as the quality of the lipid nanoparticles was remained well are shown in Tables 13 and 14. The lipid nanoparticles which remain in good quality with standing at 5° C. for one week or more can be evaluated as having excellent stability.

[4] = i.v. 0.025 mg siRNA/kg, plasma at 24 hours
[5] = F7siRNA-loaded LNP, 50:10:38.5:1.5, N/P ratio 6
[6] = FlucmRNA-loaded LNP, 50:10:38.5:1.5
[7] = FlucmRNA-loaded LNP, lipid:DSPC:cholesterol:DMG-PEG2K 50:10:38.5:1.5

% siRNA encapsulation [1] | % mRNA encapsulation [1] [%] | PDI [2, 5] | ζ-Average (nm) [2, 5] | PDI [2, 6] | ζ-Average (nm) [2, 7] [nm] | period for which quality remained good, −80° C. [3] [week] | period for which quality remained good, 5° C. [3] | period for which quality remained good, 25° C. [3] | period for which quality remained good, 40° C. (weeks) [3] | period for which quality remained good, 40° C. (days) [3] [day days] | Structure (SMILES) | Fluc activity in the liver, compared with CL4F6 (liver; 0.1 mg mRNA/kg, versus LNP comprising CL4F6 (Tables 5 and 6)) | Fluc Activity in liver (liver) | F7 enzyme activity (%) (F7; [4]) | Fluc Activity in spleen (spleen) | Fluc activity in the spleen, compared with CL4F6 (spleen) | knockdown activity, compared with MC3 (F7; F7siRNA-loaded LNP, versus LNP comprising MC3) | F7 enzyme activity (Ratio using MC3 as 1) (F7; i.v. 0.025 mg siRNA/kg, plasma at 24 hours, relative plasma F7 activity of MC3 LNP as 1)
99.9% | 99.8 | 0.034 | 92.98 nm | 0.020 | 84.50 | 1 | 5 weeks | 5 weeks | 5 weeks | – | CCCCCCCCCC(CCCCCC)C(=O)OCCCCCCC(O)(CCCCCCOC(=O)C(CCCCCC)CCCCCCCCC)CCCCN(CCC)CCC (centres unmarked) [CL4F 11-6] | higher Fluc activity | 1.38E+08 Avg Radiance [p/s/cm2/sr] | 6 | 2.54E+06 Avg Radiance [p/s/cm2/sr] | – | – | –
99.8% | 99.7 | 0.019 | 94.76 nm | 0.021 | 79.45 | 1 | 5 weeks | 5 weeks | 5 weeks | – | CCCCCCCCCC(CCCCCCC)C(=O)OCCCCCCC(O)(CCCCCCOC(=O)C(CCCCCCC)CCCCCCCCC)CCCCN(CCC)CCC (centres unmarked) [CL4F 11-7] | – | 1.23E+08 Avg Radiance [p/s/cm2/sr] | 14.1 | 2.03E+06 Avg Radiance [p/s/cm2/sr] | – | – | –
100.1% | 99.8 | 0.009 | 90.93 nm | 0.014 | 81.13 | 1 | 5 weeks | 5 weeks | 5 weeks | – | CCCCCCCCCC(CCCCCCCCC)C(=O)OCCCCCCC(O)(CCCCCCOC(=O)C(CCCCCCCCC)CCCCCCCCC)CCCCN(CCC)CCC [CL4F 11-9] | – | 6.86E+07 Avg Radiance [p/s/cm2/sr] | 47.7 | 1.19E+06 Avg Radiance [p/s/cm2/sr] | – | – | –
100.1% | 99.0 | 0.011 | 94.55 nm | 0.015 | 84.57 | 1 | 5 weeks | 5 weeks | 1 week weeks | – | CCCCCCCCCCC(CCCC)C(=O)OCCCCCCC(O)(CCCCCCOC(=O)C(CCCC)CCCCCCCCCC)CCCCN(CCC)CCC (centres unmarked) [CL4F 12-4] | – | 7.70E+07 Avg Radiance [p/s/cm2/sr] | 5 | 3.19E+06 Avg Radiance [p/s/cm2/sr] | higher Fluc activity | – | –
99.3% and 99.6% | 99.7 | 0.012 and 0.008 | 92.28 nm and 94.26 nm | 0.017 | 82.84 | 1 | 5 weeks | 5 weeks | 5 weeks | – | CCCCCCCCCCC(CCCCCC)C(=O)OCCCCCCC(O)(CCCCCCOC(=O)C(CCCCCC)CCCCCCCCCC)CCCCN(CCC)CCC (centres unmarked) [CL4F 12-6] | – | 5.86E+07 Avg Radiance [p/s/cm2/sr] | 6 | 1.72E+06 Avg Radiance [p/s/cm2/sr] | – | higher knockdown activity | 0.18
99.2% | 99.6 | 0.015 | 85.62 nm | 0.019 | 75.85 | 1 | 5 weeks | 5 weeks | 5 weeks | – | CCCCCCCCCCC(CCCCCCCCCC)C(=O)OCCCCCCC(O)(CCCCCCOC(=O)C(CCCCCCCCCC)CCCCCCCCCC)CCCCN(CCC)CCC [CL4F 12-10] | – | 3.09E+07 Avg Radiance [p/s/cm2/sr] | 80.6 | 2.77E+05 Avg Radiance [p/s/cm2/sr] | – | – | –
99.7% | 96.3 | 0.023 | 92.25 nm | 0.044 | 83.05 | 0 | 0 week weeks | 0 week weeks | – | 0 | CCCCCCCCCCCC(CCC)C(=O)OCCCCCCC(O)(CCCCCCOC(=O)C(CCC)CCCCCCCCCCC)CCCCN(CCC)CCC (centres unmarked) [CL4F 13-3] | – | 7.34E+07 Avg Radiance [p/s/cm2/sr] | 8.4 | 7.30E+06 Avg Radiance [p/s/cm2/sr] | higher Fluc activity | – | –
98.0% | 94.0 | 0.076 | 80.87 nm | 0.078 | 74.02 | 0 | 0 week weeks | 0 week weeks | – | 0 | CCCCCCCCCCCCC(CC)C(=O)OCCCCCCC(O)(CCCCCCOC(=O)C(CC)CCCCCCCCCCCC)CCCCN(CCC)CCC (centres unmarked) [CL4F 14-2] | – | 4.08E+07 Avg Radiance [p/s/cm2/sr] | 7.9 | 3.66E+06 Avg Radiance [p/s/cm2/sr] | higher Fluc activity | – | –
